Values quoted from earlier work as cited in US12691091B2, “Compositions comprising cetylated fatty acids for use in the treatment of gastric mucosa, diabetes and high blood glucose levels” (PHARMANUTRA S.P.A., priority 2019, dated 2026).

Details: European Union food additive E319

In the case of `CC(C)(C)c1cc(O)ccc1O` [TBHQ, Tert-butyl-hydroquinone], the “acceptable daily intake (ADI)” value is listed as 0.7 mg/kg of body weight.
